A word on the IC50: it is the concentration that gives 50% inhibition. The term inhibition denotes how much of the control response was suppressed. A word on the % Inhibition: it is the percentage by which the read-out fell short of the control. In general, CC50 refers to the concentration giving 50% cytotoxicity. Read a low CC50 as greater toxicity to the cells.

Like-named read-outs stand apart in the source and are kept apart here.

This is an account of results in PMC11809514, “Investigation of the activity of 4-aminoquinolines as cysteine protease inhibitors with application in the treatment of Chagas disease” (Memórias do Instituto Oswaldo Cruz, 2025).

The subject of one data set is cruzain. As to conditions: cited from earlier work.
In data set [1] the test system is T. cruzi Tulahuen strain (amastigotes and trypomastigotes). Description: Anti-T. cruzi activity assay (amastigotes and trypomastigotes) in infected L929 cells, beta-galactosidase reporter. Format: cell-based, Trypanosoma cruzi. Particulars: 96 h exposure. As for the experimental part:
Anti-T. cruzi activity assay (amastigotes and trypomastigotes) - The in vitro anti-T. cruzi activity was evaluated on L929 cells (mouse fibroblasts) infected with Tulahuen strain of the parasite expressing the Escherichia coli β-galactosidase as reporter gene according to the method described previously.[49] Briefly, for the bioassay, 4,000 L929 cells were added to each well of a 96-well microtiter plate. After an overnight incubation, 40,000 trypomastigotes were added to the cells and incubated for 2 h. Then the medium containing extracellular parasites was replaced with 200 μL of fresh medium and the plate was incubated for an additional 48 h to establish the infection. For IC50 determination, the cells were exposed to each synthesized compound at serial decreasing dilutions and the plate was incubated for 96 h. After this period, 50 μL of 500 μM chlorophenol red beta-D-galactopyranoside (CPRG) in 0.5% Nonidet P40 was added to each well, and the plate was incubated for 16 to 20 h, after which the absorbance at 570 nm was measured. Controls with uninfected cells, untreated infected cells, infected cells treated with benznidazole at 3.8 μM (positive control) or DMSO 1% were used. The results were expressed as the percentage of T. cruzi growth inhibition in compound tested cells as compared to the infected cells and untreated cells. The IC50 values were calculated by linear interpolation. Quadruplicates were run in the same plate, and the experiments were repeated at least once.
(§1) IC50 over T. cruzi and L929 cells were determined by linear interpolation and the selectivity index (SI) was calculated by the ratio of CC50 L929 cells/ IC50 T. cruzi.

The target in another data set is T1, Recombinant cruzain (Trypanosoma cruzi, UniProt P25779).
T1 construct: gift: Allison Doak and Prof Brian Shoichet (University of California San Francisco)
T1 sequence (P25779 123-467): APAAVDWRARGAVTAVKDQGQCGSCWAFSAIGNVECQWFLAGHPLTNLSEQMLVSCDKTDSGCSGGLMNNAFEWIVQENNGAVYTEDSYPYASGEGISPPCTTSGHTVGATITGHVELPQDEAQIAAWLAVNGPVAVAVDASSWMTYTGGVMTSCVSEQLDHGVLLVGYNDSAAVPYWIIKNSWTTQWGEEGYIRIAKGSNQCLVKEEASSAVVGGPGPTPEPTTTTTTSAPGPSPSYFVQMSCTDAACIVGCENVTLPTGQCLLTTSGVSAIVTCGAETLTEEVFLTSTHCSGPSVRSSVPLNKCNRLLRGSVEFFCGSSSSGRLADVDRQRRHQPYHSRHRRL
Description: Cruzain inhibition, cleavage of fluorogenic substrate Z-FR-AMC. Particulars: for inhibition at 23 µM: compound at 23 µM. Format: biochemical. As for the experimental part:
(§2) Assays against cruzain and TbrCATL - Recombinant cruzain and TbrCatL were generously provided by Allison Doak and Prof Brian Shoichet (University of California San Francisco, San Francisco, CA, USA) and Prof Conor Caffrey (University of California San Diego, San Diego, CA, USA), respectively. Enzyme activity was measured by monitoring the cleavage of the fluorogenic substrate Z-Phe-Arg-amidomethylcoumarin (Z-FR-AMC) at 25 °C. Fluorescence was monitored at 340/440 nm (excitation/emission) in a Biotec 87 Synergy 2 fluorimeter. Assays were conducted in 96-well flat bottom black plates in 0.1 M sodium acetate buffer, pH 5.5, 10 mM β-mercaptoethanol, 0.01% Triton X-100, […] enzyme and 2.5 µM substrate. DMSO and 1 µM E-64 were employed as negative and positive controls, respectively, in all assays. Assays were performed in triplicate, and enzyme activity was measured for 5 min. Reported values correspond to the mean and standard error of the mean (SEM).
(§3) Compounds were initially screened at a concentration of 100 µM against cruzain with and without a 10 min pre-incubation with the enzyme. […] IC50 values were determined from two independent experiments, each with seven compounds concentrations in triplicate. Dose-response curves were built by non-linear regression with Graph Pad Prism 6.
To evaluate the effects of Triton X-100 concentration on enzyme inhibition, assays were conducted using 0.1%, 0.01% and 0% Triton X-100. To access the impact of pre-incubation of bovine serum albumin (BSA) on enzyme inhibition, compounds were incubated with BSA (4 mg/mL, for a final assay concentration of 1 mg/mL) for 10’ followed by 10’ incubation with 2 nM enzyme. Finally, Z-FR-AMC was added to each well and the fluorescence was immediately read.

The next data set addresses T2, Recombinant TbrCatL (Trypanosoma brucei rhodesiense, UniProt Q95PM0).
T2 construct: gift: Prof Conor Caffrey (University of California San Diego)
Description: TbrCatL inhibition, cleavage of fluorogenic substrate Z-FR-AMC. Format: biochemical, T. brucei. As for the experimental part: as §2, §3

In the next data set the test system is mammalian cathepsin B. Details: method as in PMID 28215783, PMID 32116030. As to conditions: cited from earlier work.
Another data set deals with mammalian cathepsin S. Details: method as in PMID 28215783, PMID 32116030. As to conditions: cited from earlier work.
Data set [2] relates to L929 cells (mouse fibroblasts). Description: In vitro cytotoxicity over L929 cell line (alamarBlue). Format: cell-based. Particulars: ratio CC50 L929 / IC50 T. cruzi. As for the experimental part: (§4) In vitro cytotoxic activity test of compounds and CC 50 determination over L929 cell line - For this bioassay, 4,000 L929 cells in 200 μL of RPMI-1640 medium (pH 7.2-7.4) (Gibco BRL) plus 10% foetal bovine serum and 2 mM glutamine were added to each well of a 96-well microtiter plate that was incubated for three days at 37 °C. The medium was then replaced, and the cells were exposed to compounds at increasing concentrations starting at IC50 value for T. cruzi. After 96 h of incubation with the compounds the alamarBlueTM was added and the absorbance at 570 and 600 nm was measured after 4-6 h. Controls with untreated and DMSO 1%-treated cells were run in parallel. The results were expressed as the percent difference in the reduction between treated and untreated cells. The compound concentration that inhibits 50% of the L929 cell viability (CC50) was determined. Quadruplicates were run in the same plate and the experiments were repeated at least once.
as §1

Assay in data set [3]: as above
Type of data set: cell-based, mouse. Particulars: mouse, L929 cells (mouse fibroblasts); uninfected L929 cells; 96 h incubation. As for the experimental part:
as §4, §1

The mark [4] stands for this setting: 100 µM compound, 10 min pre-incubation with enzyme, 0.01% Triton X-100, read-out: % Inhibition at 100 µM (Mean ± SEM) Cruzain 10' pre-incubation.
The mark [5] stands for this setting: 100 µM compound, no pre-incubation, 0.01% Triton X-100, read-out: % Inhibition at 100 µM (Mean ± SEM) Cruzain No pre-incubation.
[6] abbreviates: 100 µM compound, 10 min pre-incubation with enzyme, read-out: % Inhibition at 100 µM (Mean ± SEM) TbrCATL 10' pre-incubation.

T2 sequence (Q95PM0 entry or part of it): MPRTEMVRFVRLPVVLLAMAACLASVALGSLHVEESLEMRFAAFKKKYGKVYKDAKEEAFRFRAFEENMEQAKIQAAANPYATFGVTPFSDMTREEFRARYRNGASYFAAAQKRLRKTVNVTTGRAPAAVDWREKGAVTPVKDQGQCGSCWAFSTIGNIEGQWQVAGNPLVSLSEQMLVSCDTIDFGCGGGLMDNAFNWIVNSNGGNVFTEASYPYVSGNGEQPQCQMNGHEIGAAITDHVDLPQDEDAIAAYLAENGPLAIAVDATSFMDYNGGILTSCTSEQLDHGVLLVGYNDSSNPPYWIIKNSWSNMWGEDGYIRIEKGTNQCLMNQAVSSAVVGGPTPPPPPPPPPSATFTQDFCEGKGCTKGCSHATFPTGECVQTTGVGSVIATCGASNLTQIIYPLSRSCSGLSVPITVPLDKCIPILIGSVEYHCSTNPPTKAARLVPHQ

In the case of `Clc1ccc2[nH]c3c(NCCCN4CCOCC4)ncnc3c2c1` [Compound 1], the IC50 with cruzain (hit from HTS) is 2.5 µM. The Ki on cruzain (non-covalent competitive inhibitor from HTS) is 2 µM.
`Clc1ccc2c(NCc3ccco3)ccnc2c1` [Compound 5, 7-chloro-N-(furan-2-ylmethyl)quinolin-4-amine]: the IC50 in data set [1] (Trypanosoma cruzi) amounted to 143 µM; at Recombinant cruzain (two independent experiments, seven concentrations in triplicate, read-out: IC50 against cruzain), 23 µM; on Recombinant TbrCatL (two independent experiments, seven concentrations in triplicate, read-out: IC50 against TbrCatL), 29 µM. In addition, the inhibition at 100 µM amounted to 99 ± 1% at Recombinant cruzain (setting [4]); 93 ± 1% at Recombinant cruzain (setting [5]); 94 ± 1% on Recombinant TbrCatL (setting [6]); 87 ± 3% on Recombinant TbrCatL (100 µM compound, no pre-incubation, read-out: % Inhibition at 100 µM (Mean ± SEM) TbrCATL No pre-incubation). Besides, the inhibition at 23 µM at Recombinant cruzain (0.01% Triton X-100, read-out: % Inhibition of cruzain (Mean ± SEM) Triton 0.01%) worked out at 28.4 ± 2%; at Recombinant cruzain (0.1% Triton X-100, read-out: % Inhibition of cruzain (Mean ± SEM) Triton 0.1%), 28.4 ± 3%; on Recombinant cruzain (no Triton X-100, read-out: % Inhibition of cruzain (Mean ± SEM) Triton 0%) it was 100 ± 1%; on Recombinant cruzain (pre-incubation with BSA (final 1 mg/mL), no Triton X-100, read-out: % Inhibition of cruzain (Mean ± SEM) BSA + Triton 0%), 32.2 ± 1%.
For the molecule `Clc1ccc2c(NCCCN3CCOCC3)ccnc2c1` [Compound 2], the “Inhibition of mammalian cathepsin B” value with mammalian cathepsin B was “did not inhibit”. Moreover, the “Inhibition of mammalian cathepsin S” value in the data set on mammalian cathepsin S is recorded as “did not inhibit”.
With `O=C(Cn1ccnc1[N+](=O)[O-])NCc1ccccc1` [Benznidazole, reference compound], half-maximal inhibition in data set [1] (Trypanosoma cruzi) (IC50) was put at 3.8 ± 0.8 µM. In data set [2], the “SI (selectivity index), CC50 L929 cells / IC50 T. cruzi” value turned out to be 626.
Consider `CC(C)(CN)CNc1ccnc2cc(Cl)ccc12` [Compound 3], for which the “Inhibition of mammalian cathepsin B” value in the data set with mammalian cathepsin B was “did not inhibit”. For the same molecule, the “Inhibition of mammalian cathepsin S” value in the data set with mammalian cathepsin S was “did not inhibit”.
As for “N-butyl-7-chloroquinolin-4-amine [Compound 6]”, in data set [1], the 50% inhibitory concentration (IC50) worked out at 150 µM. For the same molecule, at Recombinant cruzain (100 µM compound, 10 min pre-incubation with enzyme, 0.01% Triton X-100), the “% Inhibition at 100 µM (Mean ± SEM) Cruzain 10' pre-incubation” value is recorded as 35 ± 1%. Besides, the “% Inhibition at 100 µM (Mean ± SEM) Cruzain No pre-incubation” value at Recombinant cruzain (100 µM compound, no pre-incubation, 0.01% Triton X-100) was 35 ± 1%. Besides, at Recombinant TbrCatL (100 µM compound, 10 min pre-incubation with enzyme), the “% Inhibition at 100 µM (Mean ± SEM) TbrCATL 10' pre-incubation” value worked out at 42 ± 4%.
Molecule `Clc1ccc2c(NC3CCCCC3)ccnc2c1` [Compound 4, 7-chloro-N-cyclohexylquinolin-4-amine] gave an IC50 in data set [1] (Trypanosoma cruzi) of 2.57 ± 0.11 µM. In addition, the inhibition at 100 µM came to 18 ± 2% on Recombinant cruzain (setting [4]), 19 ± 1% on Recombinant cruzain (setting [5]) and 38 ± 4% at Recombinant TbrCatL (setting [6]). Moreover, the CC50 at 96 h in data set [3] is less than 2.3 µM.
